Results: patent US10077261B2, “Imidazolin-5-one derivative useful as FASN inhibitors for the treatment of cancer” (Janssen Pharmaceutica NV, priority 2012, dated 2018)

Biological target: T1, hFASN enzyme (full length) (Homo sapiens, UniProt P49327)
T1 construct: 10 μL hFASN enzyme (full length, 300 ng, purified in house); made in house
Test: Fatty Acid Synthase (FASN) inhibition scintillation proximity assay
Format: biochemical
Conditions: for inhibition at 10 µM: read-out: Human FASN % inhibition @ 10 μM, 10 μM test compound; for IC50: read-out: Human FASN pIC50 (converted)
Outline: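 Compounds at 0.01–30 μM were mixed with 300 ng purified full-length enzyme in 100 mM KH2PO4 pH 7.5, 1 mM DTT. Substrates ³H-acetyl-CoA and malonyl-CoA were then converted, and bead addition stopped the reaction. Signal was normalised to low and high plate controls and fitted by 4-parameter nonlinear regression.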

T1 sequence (P49327 whole entry): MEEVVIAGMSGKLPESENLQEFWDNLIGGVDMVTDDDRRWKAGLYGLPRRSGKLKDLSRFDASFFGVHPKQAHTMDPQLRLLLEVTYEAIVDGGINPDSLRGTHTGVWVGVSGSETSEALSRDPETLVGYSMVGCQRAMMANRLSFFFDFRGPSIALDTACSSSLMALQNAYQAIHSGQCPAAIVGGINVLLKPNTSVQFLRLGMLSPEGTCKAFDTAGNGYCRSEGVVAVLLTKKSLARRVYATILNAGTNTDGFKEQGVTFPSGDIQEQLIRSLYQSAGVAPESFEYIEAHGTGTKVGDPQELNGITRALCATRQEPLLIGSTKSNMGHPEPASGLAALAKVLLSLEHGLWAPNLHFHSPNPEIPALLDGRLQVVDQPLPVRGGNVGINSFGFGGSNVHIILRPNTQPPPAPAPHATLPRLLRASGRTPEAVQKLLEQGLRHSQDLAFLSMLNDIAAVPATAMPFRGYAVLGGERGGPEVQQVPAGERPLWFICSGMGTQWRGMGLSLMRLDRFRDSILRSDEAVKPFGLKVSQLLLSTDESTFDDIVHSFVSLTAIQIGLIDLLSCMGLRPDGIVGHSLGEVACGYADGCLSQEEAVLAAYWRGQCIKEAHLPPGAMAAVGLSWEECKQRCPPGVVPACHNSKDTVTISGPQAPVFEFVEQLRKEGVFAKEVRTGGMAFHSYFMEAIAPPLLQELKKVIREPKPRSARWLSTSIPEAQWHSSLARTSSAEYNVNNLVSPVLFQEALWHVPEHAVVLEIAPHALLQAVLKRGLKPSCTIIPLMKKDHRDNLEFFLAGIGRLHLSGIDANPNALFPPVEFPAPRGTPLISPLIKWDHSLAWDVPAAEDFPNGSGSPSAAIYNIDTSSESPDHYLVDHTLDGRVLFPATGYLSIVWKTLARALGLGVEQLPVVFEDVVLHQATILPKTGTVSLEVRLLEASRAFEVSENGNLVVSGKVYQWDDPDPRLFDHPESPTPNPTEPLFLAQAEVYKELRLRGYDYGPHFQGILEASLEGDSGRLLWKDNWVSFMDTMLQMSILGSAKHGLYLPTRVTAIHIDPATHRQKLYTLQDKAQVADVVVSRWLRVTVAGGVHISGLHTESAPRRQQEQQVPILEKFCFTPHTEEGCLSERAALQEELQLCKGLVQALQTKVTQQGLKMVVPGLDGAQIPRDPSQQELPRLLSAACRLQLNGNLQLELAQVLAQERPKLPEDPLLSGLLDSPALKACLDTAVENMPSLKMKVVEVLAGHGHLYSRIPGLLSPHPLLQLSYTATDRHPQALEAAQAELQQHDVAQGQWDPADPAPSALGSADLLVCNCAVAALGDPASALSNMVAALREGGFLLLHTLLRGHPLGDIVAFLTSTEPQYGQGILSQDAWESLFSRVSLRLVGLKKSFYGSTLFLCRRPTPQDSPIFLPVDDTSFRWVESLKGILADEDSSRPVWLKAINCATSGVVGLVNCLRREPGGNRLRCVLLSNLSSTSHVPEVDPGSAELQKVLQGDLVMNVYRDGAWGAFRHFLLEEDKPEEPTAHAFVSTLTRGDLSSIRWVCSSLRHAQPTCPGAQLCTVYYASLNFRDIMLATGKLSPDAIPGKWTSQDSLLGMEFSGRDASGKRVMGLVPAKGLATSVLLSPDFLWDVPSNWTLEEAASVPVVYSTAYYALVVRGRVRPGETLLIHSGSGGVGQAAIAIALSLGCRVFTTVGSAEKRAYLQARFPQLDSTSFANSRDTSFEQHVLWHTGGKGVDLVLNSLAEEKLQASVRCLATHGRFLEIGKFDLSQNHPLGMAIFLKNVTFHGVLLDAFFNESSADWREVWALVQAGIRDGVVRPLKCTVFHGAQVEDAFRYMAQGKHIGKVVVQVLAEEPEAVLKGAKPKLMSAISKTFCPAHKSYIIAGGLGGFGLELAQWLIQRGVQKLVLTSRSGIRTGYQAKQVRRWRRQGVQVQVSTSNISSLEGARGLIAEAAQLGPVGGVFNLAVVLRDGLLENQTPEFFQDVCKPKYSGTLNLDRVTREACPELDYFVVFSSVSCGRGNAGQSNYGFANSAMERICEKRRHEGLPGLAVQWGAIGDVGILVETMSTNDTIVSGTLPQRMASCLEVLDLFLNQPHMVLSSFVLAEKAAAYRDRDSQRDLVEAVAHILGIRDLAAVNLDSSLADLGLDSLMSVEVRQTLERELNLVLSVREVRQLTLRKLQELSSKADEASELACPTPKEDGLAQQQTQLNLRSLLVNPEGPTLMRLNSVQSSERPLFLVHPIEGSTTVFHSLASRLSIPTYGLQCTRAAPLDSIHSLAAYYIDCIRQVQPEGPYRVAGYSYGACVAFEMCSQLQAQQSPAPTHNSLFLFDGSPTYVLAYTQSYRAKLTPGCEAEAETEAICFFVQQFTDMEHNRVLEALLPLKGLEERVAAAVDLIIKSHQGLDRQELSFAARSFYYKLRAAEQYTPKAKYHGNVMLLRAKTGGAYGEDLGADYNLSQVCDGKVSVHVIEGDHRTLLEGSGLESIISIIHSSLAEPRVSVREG

| inhibition at 10 µM | IC50 | Human FASN pIC50 (hFASN enzyme, full length, "~" means standard error of the pIC50 is larger than 0.5) | Compound |
| --- | --- | --- | --- |
| 43% | ~10 µM |  | Cc1cc(C2=NC3(CC3)C(=O)N2CC2CN(C(=O)C3CC3)C2)ccc1-c1ccc2c(cnn2C)c1 [compound 436, 6-{[1-(Cyclopropylcarbonyl)azetidin-3-yl]methyl}-5-[3-methyl-4-(1-methyl-1H-indazol-5-yl)phenyl]-4,6-diazaspiro[2.4]hept-4-en-7-one] |
| 72% | 2.75 µM |  | O=C(C1CC1)N1CC[C@@H](CN2C(=O)C3(CC3)N=C2c2ncc(-c3ccc4occc4c3)cn2)C1 [compound 437, 5-[5-(1-Benzofuran-5-yl)pyrimidin-2-yl]-6-{[(3R)-1-(cyclopropylcarbonyl)pyrrolidin-3-yl]methyl}-4,6-diazaspiro[2.4]hept-4-en-7-one] |
| 65% | 3.31 µM |  | Cn1ncc2cc(-c3cnc(C4=NC5(CC5)C(=O)N4C[C@@H]4CCN(C(=O)C5CC5)C4)nc3)ccc21 [compound 438, 6-{[(3R)-1-(Cyclopropylcarbonyl)pyrrolidin-3-yl]methyl}-5-[5-(1-methyl-1H-indazol-5-yl)pyrimidin-2-yl]-4,6-diazaspiro[2.4]hept-4-en-7-one] |
| 48% | 9.55 µM |  | O=C(C1CC1)N1CC[C@@H](CN2C(=O)C3(CC3)N=C2c2cnc(-c3ccc4occc4c3)cn2)C1 [compound 439, 5-[5-(1-Benzofuran-5-yl)pyrazin-2-yl]-6-{[(3R)-1-(cyclopropylcarbonyl)pyrrolidin-3-yl]methyl}-4,6-diazaspiro[2.4]hept-4-en-7-one] |
| 63% | 3.98 µM |  | Cn1ncc2cc(-c3ccc(C4=NC5(CC5)C(=O)N4CC4CN(C(=O)C5CC5)C4)cc3F)ccc21 [compound 441, 6-{[1-(Cyclopropylcarbonyl)azetidin-3-yl]methyl}-5-[3-fluoro-4-(1-methyl-1H-indazol-5-yl)phenyl]-4,6-diazaspiro[2.4]hept-4-en-7-one] |
| 60% | 5.01 µM |  | Cc1cc2cc(-c3ccc(C4=NC5(CC5)C(=O)N4CC4CN(C(=O)C5CC5)C4)cc3C)ccc2s1 [compound 446, 6-{[1-(Cyclopropylcarbonyl)azetidin-3-yl]methyl}-5-[3-methyl-4-(2-methyl-1-benzothiophen-5-yl)phenyl]-4,6-diazaspiro[2.4]hept-4-en-7-one] |
| 79% | 1.2 µM |  | Cc1cc(C2=NC3(CC3)C(=O)N2CC2CN(C(=O)C3CC3)C2)ccc1-c1ccc2sc(C)c(C)c2c1 [compound 447, 6-{[1-(Cyclopropylcarbonyl)azetidin-3-yl]methyl}-5-[4-(2,3-dimethyl-1-benzothiophen-5-yl)-3-methylphenyl]-4,6-diazaspiro[2.4]hept-4-en-7-one] |
| 50% | 8.51 µM |  | Cc1cc(C2=NC3(CC3)C(=O)N2CC2CN(C(=O)C3CC3)C2)ccc1-c1ccc2[nH]ncc2c1 [compound 448, 6-{[1-(Cyclopropylcarbonyl)azetidin-3-yl]methyl}-5-[4-(1H-indazol-5-yl)-3-methylphenyl]-4,6-diazaspiro[2.4]hept-4-en-7-one] |
| 82% | 1.26 µM |  | O=C(C1CC1)N1CC(CN2C(=O)C3(CC3)N=C2c2ccc(-c3ccc4[nH]ncc4c3)c(F)c2)C1 [compound 451, 6-{[1-(Cyclopropylcarbonyl)azetidin-3-yl]methyl}-5-[3-fluoro-4-(1H-indazol-5-yl)phenyl]-4,6-diazaspiro[2.4]hept-4-en-7-one] |
| 53% | ~6.03 µM |  | CC(C)n1ncc2cc(-c3ccc(C4=NC5(CC5)C(=O)N4C[C@@H]4CCN(C(=O)C5CC5)C4)cc3)ccc21 [compound 454, 6-{[(3R)-1-(Cyclopropylcarbonyl)pyrrolidin-3-yl]methyl}-5-{4-[1-(1-methylethyl)-1H-indazol-5-yl]phenyl}-4,6-diazaspiro[2.4]hept-4-en-7-one] |
| 65% | 6.92 µM |  | O=C(C1CC1)N1CC[C@@H](CN2C(=O)C3(CC3)N=C2c2ccc(-c3ccc4c(c3)OCCO4)cc2)C1 [compound 456, 6-{[(3R)-1-(Cycloprop-ylcarbonyl)pyrrolidin-3-yl]methyl}-5-[4-(2,3-dihydro-1,4-benzodioxin-6-yl)phenyl]-4,6-diazaspiro[2.4]hept-4-en-7-one] |
| 48% | 8.13 µM |  | O=C(C1CC1)N1CC[C@@H](CN2C(=O)C3(CC3)N=C2c2cnc(-c3ccc4occc4c3)nc2)C1 [compound 458, 5-[2-(1-Benzofuran-5-yl)pyrimidin-5-yl]-6-{[(3R)-1-(cyclopropylcarbonyl)pyrrolidin-3-yl]methyl}0-4,6-diazaspiro[2.4]hept-4-en-7-one] |
| 43% |  | 5.06 | Cn1ncc2cc(-c3ncc(C4=NC5(CC5)C(=O)N4C[C@@H]4CCN(C(=O)C5CC5)C4)cn3)ccc21 [compound 459, 6-{[(3R)-1-(Cyclopropylcarbonyl)pyrrolidin-3-yl]methyl}-5-[2-(1-methyl-1H-indazol-5-yl)pyrimidin-5-yl]-4,6-diazaspiro[2.4]hept-4-en-7-one] |
| 63% | 3.09 µM |  | Cc1cc(C2=NC3(CC3)C(=O)N2CC2CN(C(=O)C3CC3)C2)ccc1-c1ccc2oc(C#N)cc2c1 [compound 460, 5-[4-(6-{[1-(Cyclopropylcarbonyl)azetidin-3-yl]methyl}-7-oxo-4,6-diazaspiro[2.4]hept-4-en-5-yl)-2-methylphenyl]-1-benzofuran-2-carbonitrile] |
| 66% | 4.07 µM |  | O=C(C1CC1)N1CC[C@@H](CN2C(=O)C3(CC3)N=C2c2ccc(-c3ccc4c(c3)CCCO4)cc2)C1 [compound 464, 6-{[(3R)-1-(Cyclopropylcarbonyl)pyrrolidin-3-yl]methyl}-5-[4-(3,4-dihydro-2H-chromen-6-yl)phenyl]-4,6-diazaspiro[2.4]hept-4-en-7-one] |
| 67% | 3.09 µM |  | N#Cc1cc2cc(-c3ccc(C4=NC5(CC5)C(=O)N4CC4CN(C(=O)C5CC5)C4)cc3F)ccc2o1 [compound 477, 5-[4-(6-{[1-(Cyclopropylcarbonyl)azetidin-3-yl]methyl}-7-oxo-4,6-diazaspiro[2.4]hept-4-en-5-yl)-2-fluorophenyl]-1-benzofu8ran-2-carbonitrile] |
| 92% | 1.38 µM |  | O=C(C1CC1)N1CC[C@@H](CN2C(=O)C3(CC3)N=C2c2ccc(-c3cc4cc(Br)ccc4cn3)cc2)C1 [compound 478, 5-[4-(6-Bromoisoquinolin-3-yl)phenyl]-6-{[(3R)-1-(cyclopropylcarbonyl)pyrrolidin-3-yl]methyl}-4,6-diazaspiro[2.4]hept-4-en-7-one] |
| 68% | 2.19 µM |  | O=C(C1CC1)N1CC(CN2C(=O)C3(CC3)N=C2c2ccc(-c3ccc4nccnc4c3)cc2)C1 [compound 481, 6-{[1-(Cyclopropylcarbonyl)azetidin-3-yl]methyl}-5-(4-quinoxalin-6-ylphenyl)-4,6-diazaspiro[2.4]hept-4-en-7-one] |
| 76% | 1.32 µM |  | O=C(C1CC1)N1CC(CN2C(=O)C3(CC3)N=C2c2ccc(-c3ccc(N4CCCC4)nc3)cc2)C1 [compound 482, 6-{[1-(Cyclopropylcarbonyl)azetidin-3-yl]methyl}-5-[4-(6-pyrrolidin-1-ylpyridin-3-yl)phenyl]-4,6-diazaspiro[2.4]hept-4-en-7-one] |
